Legend:
[1] = target: T1, human CB2 receptor (Homo sapiens, UniProt P34972); assay: Affinity for cannabinoid receptor CB2, [3H]-CP 55,940 displacement on HEK-293EBNA membranes; conditions: 10 μM test substance; 0.33 nM [3H]-CP 55,940; percent inhibition of specific binding
T1 construct: expressed in transfected cells; host or cells: HEK-293EBNA cells (membranes)
Excerpt: VI. Determination of the Affinity for the Cannabinoid Receptor CB2 (CB2 Receptor):
To determine the affinity of the inventive compounds for the cannabinoid receptor, membranes from human recombinant HEK-293EBNA cells were used, which had been transfected stably with the human CB2 receptor. The radioligand used was tritium-labeled 5-(1,1-dimethylheptyl)-2-(5-hydroxypropyl)cyclohexyl)-1-alpha,2-beta,5-alpha)phenol ([3]H—CP 55,940 with 103.4 Ci/mmol, 1 mCi/ml). The determination was effected in a test buffer composed of 50 mM Tris-HCl, 2.5 mM EDTA, 5 mM MgCl2 and 1.0 mg/ml of fatty acid-free BSA. The test substances were each dissolved in DMSO.
The affinity of the inventive compounds for the CB2 receptor is determined by their ability to displace [3]H—CP 55,940 from CB2 receptors in membranes from HEK-293EBNA cells. To this end, in each case 8 μg of the membranes (20 μl of a solution from membranes in a concentration of 400 μg/ml) are incubated in wells on a microtiter plate with a 0.33 nM solution of ^[3]H-CP […] (120 Ci/mmol) in a total volume of test buffer of 200 μl at 30° C. for 90 minutes.
Subsequently, either the test substances or WIN 55212-2 to determine the unspecific binding, in each case dissolved in DMSO, are added to the wells so as to result in each case in a concentration of the corresponding substances of 10 μM.
Incubation at 30° C. is continued for a further 40 minutes. The binding reaction was ended by rapid filtration through GF/C filter paper which had been treated with 0.05% PEI using a Brandel cell harvester with 96 wells. The filters are washed nine times with 0.5 ml of ice-cooled washing buffer ([…] Tris-HCl, 5 mM MgCl2, 2.5 mM EDTA, 2% BSA, pH 7.4), air-dried and placed in scintillation fluid, and the radioactivity is determined with the aid of a scintillation counter.
The percentage displacement of the radioactive ligand ^[3]H-CP 55,940 from its binding to the CB2 receptor is reported as percent inhibition of the specific binding.

[2] = target: T2, vanilloid receptor (VR1) (Homo sapiens, UniProt Q8NER1); assay: Functional study on vanilloid receptor (VR1), FLIPR Ca2+ assay in VR1-transfected CHO K1 cells; type: cell-based; conditions: test substance 10 μM; CHO K1 cells transfected with VR1; suppression of Ca2+ current after 100 nM capsaicin; read-out: VR1 (human) (% inhibition compared to 10 μM CP)
T2 construct: expressed in transfected cells; host or cells: CHO K1 cells (ECACC)
Excerpt: II. Functional Studies on the Vanilloid Receptor (VR1)
The agonistic or antagonistic action of the substances to be tested on vanilloid receptor (VR1) can also be determined with the assay which follows. In this assay, the Ca^2+ current through the channel is quantified with the aid of a Ca^2+-sensitive dye (Fluo-4 type, Molecular Probes, Europe BV, Leiden, the Netherlands) in a fluorescent imaging plate reader (FLIPR, Molecular Devices, Sunnyvale, USA).
Chinese hamster ovary cells (CHO K1 cells, European Collection of Cell Cultures (ECACC) Great Britain) are transfected stably with the VR1 gene. For functional studies, these cells are plated out onto poly-D-lysine-coated black 96-well plates with a clear bottom (BD Biosciences, Heidelberg, Germany) in a density of 25 000 cells/well. The cells are incubated overnight at 37° C. and 5% CO2 in a culture medium (Ham's Nutrient Mixture F12, 10% by volume of FCS (fetal calf serum), 18 μg/ml of L-proline). The next day, the cells are incubated with Fluo-4 (Fluo-4 2 μM, Pluronic F127 0.01% by volume, Molecular Probes in HBSS (Hank's buffered saline solution), Gibco Invitrogen GmbH, Karlsruhe, Germany) at 37° C. for 30 minutes. Subsequently, the plates are washed 3 times with HBSS buffer and, after a further incubation of 15 minutes at room temperature, used for Ca^2+ measurement in FLIPR. The Ca^2+-dependent fluorescence is measured before and after addition of the substances to be studied (wavelength λex=488 nm, λem=540 nm). The quantification is effected by measuring the highest fluorescence intensity (FC, fluorescence counts) over the time.
The FLIPR protocol consists of 2 substance additions. First, the substances to be tested (10 μM) are pipetted onto the cells and the Ca^2+ current is compared with the control (capsaicin 10 μM) (% activation based on the Ca^2+ signal after addition of 10 μM capsaicin). After incubation for 5 minutes, 100 nM capsaicin is applied and the current of Ca^2+ is likewise determined.
Desensitizing agonists and antagonists led to a suppression of the Ca^2+ current. % inhibition is calculated compared to the maximum achievable inhibition with 10 μM capsazepine.

[3] = target: T3, vanilloid receptor 1 (VR1/TRPV1) (Rattus norvegicus, UniProt O35433); assay: Functional study on vanilloid receptor 1 (VR1/TRPV1), FLIPR Ca2+ assay in rat dorsal root ganglia cells; type: cell-based; conditions: test compound 10 μM, rat DRG cells; for inhibition at 10 µM: suppression of Ca2+ current after 100 nM capsaicin, read-out: VR1 (rat) (% inhibition compared to 10 μM CP)
T3 construct: The spinal column is removed from beheaded rats; from tissue; host or cells: primary cells from rat dorsal root ganglia
Description: Preference may likewise be given to inventive compounds which, in the FLIPR assay, in a concentration of 10 μM, have an inhibition of the Ca^2+ ion current in dorsal root ganglia of rats of at least 10%, preferably of at least 30%, more preferably of at least 50%, even more preferably of at least 70%, even more preferably of at least 90%, compared to the maximum achievable inhibition of the Ca^2+ ion current with […] in a concentration of 10 μM.
In the FLIPR assay, the Ca^2+ current is quantified with the aid of a Ca^2+-sensitive dye (Fluo-4 type, Molecular Probes Europe BV, Leiden, the Netherlands) in the fluorescent imaging plate reader (FLIPR, Molecular Devices, Sunnyvale, USA), as described below.
I. Functional Study on the Vanilloid Receptor 1 (VR1/TRPV1 Receptor)
The agonistic or antagonistic action of the substances to be studied on the vanilloid receptor 1 (VR1/TRPV1) of the rat species can be determined with the following assay. In this assay, the Ca^2+ current through the receptor channel is quantified with the aid of a Ca^2+-sensitive dye (Fluo-4 type, Molecular Probes Europe BV, Leiden the Netherlands) in a fluorescent imaging plate reader (FLIPR, Molecular Devices, Sunnyvale, USA).
Cell culture plate: poly-D-lysine-coated, black 96-hole plates with a clear bottom (96 well black/clear plate, BD Biosciences, Heidelberg, Germany) are additionally coated with laminin (Gibco Invitrogen GmbH, Karlsruhe, Germany) by diluting laminin to a concentration of 100 μg/ml with PBS (Ca—Mg-free PBS, Gibco Invitrogen GmbH, Karlsruhe, Germany). Aliquots having a concentration of 100 μg/ml of laminin are withdrawn and stored at −20° C. The aliquots are diluted with PBS in a ratio of 1:10 to 10 μg/ml of laminin and in each case 50 μl of the solution are pipetted into a well of the cell culture plate. The cell culture plates are incubated at 37° C. for at least two hours, the supernatant solution is removed by suction and the wells are each washed twice with PBS. The coated cell culture plates are stored with supernatant PBS which is not removed until directly before the application of the cells.
The spinal column is removed from beheaded rats and placed directly into cold HBSS buffer (Hank's buffered saline solution, Gibco Invitrogen GmbH, Karlsruhe, Germany), i.e. placed in an ice bath, which has been admixed with 1% by volume of an AA solution (antibiotic/antimycotic solution, PAA, Pasching, Austria). The spinal column is severed longitudinally and removed from the spinal canal together with fasciae. Subsequently, the dorsal root ganglia (DRGs) are removed and in turn stored in cold HBSS buffer admixed with 1% by volume of an AA solution. The DRGs freed completely of blood residues and spinal nerves are in each case transferred to 500 μl of cold type 2 collagenase (PAA, Pasching, Austria) and incubated at 37° C. for 35 minutes. After addition of 2.5% by volume of trypsin (PAA, Pasching, Austria), incubation is continued at 37° C. for a further 10 minutes. After complete incubation, the enzyme solution is cautiously pipetted off and the remaining DRGs are each admixed with 500 μl of complete medium.
The DRGs are each suspended repeatedly, drawn through cannulas No. 1, No. 12 and No. 16 by means of a syringe and transferred to 50 ml Falcon tubes which are made up to 15 ml with complete medium. The contents of each Falcon tube are in each case filtered through a 70 μm Falcon filter insert and centrifuged at 1200 revolutions and room temperature for 10 minutes. The resulting pellet is in each case taken up in 250 μl of complete medium and the cell count is determined.
The number of cells in the suspension is adjusted to 3 times 10^5 per ml and in each case 150 μl of this suspension are added to one well of the cell culture plates coated as described above. In the incubator, the plates are left to stand at 37° C., 5% by volume of CO2 and 95% relative air humidity for two to three days. […]

T2 sequence (Q8NER1 whole entry): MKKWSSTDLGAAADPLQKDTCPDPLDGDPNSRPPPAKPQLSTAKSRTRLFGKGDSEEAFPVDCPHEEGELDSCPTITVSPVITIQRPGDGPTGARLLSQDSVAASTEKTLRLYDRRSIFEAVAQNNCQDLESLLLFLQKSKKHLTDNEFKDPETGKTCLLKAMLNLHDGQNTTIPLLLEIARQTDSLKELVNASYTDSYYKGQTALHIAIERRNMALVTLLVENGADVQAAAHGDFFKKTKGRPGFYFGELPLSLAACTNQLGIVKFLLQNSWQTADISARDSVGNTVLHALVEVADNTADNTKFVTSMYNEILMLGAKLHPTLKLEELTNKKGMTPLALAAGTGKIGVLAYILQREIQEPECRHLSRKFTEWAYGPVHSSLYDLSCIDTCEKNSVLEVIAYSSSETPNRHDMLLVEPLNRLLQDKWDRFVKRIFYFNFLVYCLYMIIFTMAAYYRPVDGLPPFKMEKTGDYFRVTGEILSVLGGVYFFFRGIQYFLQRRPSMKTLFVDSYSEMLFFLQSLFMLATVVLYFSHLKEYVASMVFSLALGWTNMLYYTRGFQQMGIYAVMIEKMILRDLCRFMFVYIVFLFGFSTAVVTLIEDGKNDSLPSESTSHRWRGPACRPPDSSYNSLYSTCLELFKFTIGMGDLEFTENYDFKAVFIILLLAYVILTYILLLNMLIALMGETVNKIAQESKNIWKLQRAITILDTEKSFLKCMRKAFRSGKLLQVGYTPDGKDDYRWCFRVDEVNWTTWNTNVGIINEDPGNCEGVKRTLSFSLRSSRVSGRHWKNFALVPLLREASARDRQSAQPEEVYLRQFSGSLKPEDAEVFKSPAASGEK
T1 sequence (P34972 whole entry): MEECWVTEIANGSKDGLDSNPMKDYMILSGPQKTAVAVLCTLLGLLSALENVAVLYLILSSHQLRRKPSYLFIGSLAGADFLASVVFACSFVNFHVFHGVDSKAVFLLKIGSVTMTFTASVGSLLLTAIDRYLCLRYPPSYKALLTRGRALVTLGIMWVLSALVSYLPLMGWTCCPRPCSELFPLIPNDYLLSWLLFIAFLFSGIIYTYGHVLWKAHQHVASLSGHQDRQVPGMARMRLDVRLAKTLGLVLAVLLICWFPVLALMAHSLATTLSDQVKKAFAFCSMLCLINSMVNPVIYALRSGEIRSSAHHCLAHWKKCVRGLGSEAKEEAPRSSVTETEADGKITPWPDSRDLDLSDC
T3 sequence (O35433 whole entry): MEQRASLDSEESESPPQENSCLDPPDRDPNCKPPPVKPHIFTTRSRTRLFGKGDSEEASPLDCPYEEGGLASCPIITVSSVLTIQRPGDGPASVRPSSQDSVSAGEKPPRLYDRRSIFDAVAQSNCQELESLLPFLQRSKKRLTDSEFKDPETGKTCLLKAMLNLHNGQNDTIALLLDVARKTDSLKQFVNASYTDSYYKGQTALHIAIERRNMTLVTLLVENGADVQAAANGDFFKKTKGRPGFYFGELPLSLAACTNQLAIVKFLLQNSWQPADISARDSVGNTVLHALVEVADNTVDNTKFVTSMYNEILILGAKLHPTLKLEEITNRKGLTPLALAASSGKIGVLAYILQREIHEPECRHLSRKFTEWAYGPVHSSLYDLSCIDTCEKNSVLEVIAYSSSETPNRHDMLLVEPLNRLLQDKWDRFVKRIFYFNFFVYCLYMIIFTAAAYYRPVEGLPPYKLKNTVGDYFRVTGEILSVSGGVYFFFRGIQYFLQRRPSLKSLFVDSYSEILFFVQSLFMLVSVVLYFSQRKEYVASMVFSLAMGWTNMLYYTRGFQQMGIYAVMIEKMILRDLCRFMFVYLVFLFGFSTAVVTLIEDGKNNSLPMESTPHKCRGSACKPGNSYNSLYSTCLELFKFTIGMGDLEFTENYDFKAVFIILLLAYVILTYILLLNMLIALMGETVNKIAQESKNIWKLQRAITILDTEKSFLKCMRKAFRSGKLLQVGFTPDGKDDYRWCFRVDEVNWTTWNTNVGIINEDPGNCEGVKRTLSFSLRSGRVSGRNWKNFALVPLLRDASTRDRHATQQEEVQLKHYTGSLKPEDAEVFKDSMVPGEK

| SMILES | inhibition at 10 µM [1] [%] | inhibition at 10 µM [2] [%] | inhibition at 10 µM [3] [%] | VR1 (rat) (% stimulation compared to 10 μM CP) ([3]; Ca2+ signal relative to 10 μM capsaicin (CP)) [%] |
| --- | --- | --- | --- | --- |
| O=C(Nc1ccc(Br)cc1)OCC1CCSc2ccccc2C1=O (stereo not drawn) [Example Compound 5, (4-Bromophenyl)carbamic acid 5-oxo-2,3,4,5-tetrahydrobenzo[b]thiepin-4-ylmethyl ester] | 36.2 | 53.8 |  |  |
| CCCCCNC(=O)OCC1CCSc2ccccc2C1=O (stereo not drawn) [Example Compound 1, Pentylcarbamic acid 5-oxo-2,3,4,5-tetrahydrobenzo[b]thiepin-4-ylmethyl ester] | 42.2 |  |  |  |
| CCCCCNC(=O)OCC1(COC(=O)NCCCCC)CCSc2ccccc2C1=O [Example Compound 14, pentylcarbamic acid 4-(pentylcarbamoyloxymethyl)-5-oxo-2,3,4,5-tetrahydrobenzo[b]thiepin-4-ylmethyl ester] | 61.8 |  |  |  |
| O=C(NC1CCCCC1)OCC1(CO)CCSc2ccccc2C1=O (stereo not drawn) [Example Compound 6, Cyclohexylcarbamic acid 4-hydroxymethyl-5-oxo-2,3,4,5-tetrahydro-benzo[b]thiepin-4-ylmethyl ester] | 53.6 | 26.7 |  |  |
| O=C1c2ccccc2SCCC1(CO)COC(=S)Nc1cccc(C(F)(F)F)c1 (stereo not drawn) [Example Compound 17, (3-Trifluoromethylphenyl)thiocarbamic acid O-(4-hydroxymethyl-5-oxo-2,3,4,5-tetrahydrobenzo[b]thiepin-4-ylmethyl)ester] | 3.8 | 17.1 | 46.6 |  |
| O=C1c2ccccc2SCCC1(CO)COC(=S)Nc1ccc(F)cc1F (stereo not drawn) [Example Compound 21, (2,4-Difluorophenyl)thiocarbamic acid O-(4-hydroxymethyl-5-oxo-2,3,4,5-tetrahydrobenzo[b]thiepin-4-ylmethyl)ester] |  | 36.3 | 34.6 |  |
| O=C1c2ccccc2OCCC1(CO)COC(=S)Nc1cccc(C(F)(F)F)c1 (stereo not drawn) [Example Compound 18, (3-Trifluoromethylphenyl)thiocarbamic acid O-(4-hydroxymethyl-5-oxo-2,3,4,5-tetrahydrobenzo[b]oxepin-4-ylmethyl)ester] | 15.6 | 31.5 | 52.1 |  |
| O=C(Nc1ccc(F)cc1F)OCC1(COC(=O)Nc2ccc(F)cc2F)CCOc2ccccc2C1=O [Example Compound 16, 2,4-Difluorophenylcarbamic acid 4-(2,4-difluorophenylcarbamoyloxymethyl)-5-oxo-2,3,4,5-tetrahydrobenzo[b]oxepin-4-ylmethyl ester] | 63.4 |  |  |  |
| O=C1c2ccccc2CCCC1(CO)COC(=S)Nc1cccc(C(F)(F)F)c1 (stereo not drawn) [Example Compound 22, (3-Trifluoromethylphenyl)thiocarbamic acid O-(6-hydroxymethyl-5-oxo-6,7,8,9-tetrahydro-5H-benzocyclohepten-6-ylmethyl)ester] |  | 67.5 | 59.7 | 77.9 |
| O=C(Nc1ccc(F)cc1F)OCC1(CO)CCSc2ccccc2C1=O (stereo not drawn) [Example Compound 20, (2,4-Difluorophenyl)carbamic acid 4-hydroxymethyl-5-oxo-2,3,4,5-tetrahydro-benzo[b]thiepin-4-ylmethyl ester] | 41 | 21.8 | 17.1 |  |
| O=C1c2ccccc2SCCC1(CO)COC(=S)Nc1ccccc1 (stereo not drawn) [Example Compound 9, Phenylthiocarbamic acid O-(4-hydroxymethyl-5-oxo-2,3,4,5-tetrahydro-benzo[b]thiepin-4-ylmethyl)ester] | 28.3 | 51.3 | 52.8 |  |
| O=C(NC(=O)c1ccccc1)OCC1(COC(=O)NC(=O)c2ccccc2)CCOc2ccccc2C1=O [Example Compound 19, Benzoylcarbamic acid 4-benzoylcarbamoyloxymethyl-5-oxo-2,3,4,5-tetrahydro-benzo[b]oxepin-4-ylmethyl ester] | 40.3 | 13.3 | 32.2 |  |
